Test results as given in US11517550B2 (priority 2008, dated 2022).

The substances below were run on Clostridium perfringens ATCC 13124. Conditions: brain heart infusion broth, pH 6.0, 30° C., 0% oxygen.
Format: cell-based

Row | Substance | MIC values (%)
1 | C8 lactylate | 0.05
2 | C10 lactylate | 0.04
3 | C12 lactylate | 0.002
4 | C14 lactylate | 0.001
5 | C16 lactylate | 0.002
6 | C18:1 lactylate | 0.02
